This is an account of results in patent US9433663B2, “Mobilization of hematopoietic stem cells” (Children's Hospital Medical Center, priority 2008, dated 2016).

For one experiment, the system named is donor cell engraftment. Briefly: Example 9 mobilization as preparative regimen for HSC transplantation. In kind it is in vivo, mice. Particulars: compared to the non-mobilization control. How it is done: If the microenvironmental niches are vacated after CASIN exposure, donor HSCs might engraft better in hosts treated with a mobilizing agent such as CASIN compared with non-mobilized controls. To test this, bone marrow transplantation is performed on recipient mice which are pre-conditioned with CASIN. […] Additionally, AMD3100, G-CSF, and control medium are used in parallel with CASIN as controls.
Briefly, mice are treated with CASIN, and 4×10^7 donor bone marrow cells from congenic mouse strain are transplanted 48 h later. Donor cell engraftment is assayed at 3 months using the congenic markers by flow cytometry.
Additionally, multiple cycles of mobilization with CASIN may increase the number of available niches. Therefore, this study investigates whether repeated cycles of CASIN mobilization, each followed by donor cell transplantation, could result in increased engraftment. Briefly, mice receive one weekly injection of CASIN on 3 consecutive weeks and 4×10^7 donor marrow cells are transplanted 48 hours after each mobilization. Control animals also received 3 weekly infusions of 4×10^7 donor marrow cells but no CASIN. And the donor engraftment is assayed at 3 months after transplantation as well.

For the next experiment, the system named is C57Bl/6 mice. Kind of experiment: mobilization of colony-forming progenitors to peripheral blood, CFU-C assay. The format is in vivo. Particulars: C57Bl/6 mice, FIG. 8b. The method, then: Whether CASIN administration can induce mobilization of HSC/Ps to peripheral blood of C57Bl/6 mice, mimicking the phenotype observed in Cdc42 conditional knockout mice, was evaluated. First of all, mobilization of hematopoietic progenitor cells was examined by CFU-C assays functionally (FIG. 3a). […] Secondarily, to further explore the ability of CASIN to mobilize LT-HSC which is crucial for long-term repopulation of the mobilized cells, serial transplantations were carried out, where 20 million PB from CASIN-mobilized C57Bl/6 mice was transplanted into primary recipient of NOD/SCID mice, and subsequent secondary and tertiary transplants were finished as well using prior BMs (FIG. 3c). Donor chimerisms were assessed by using H2K^b congenic marker which is positive for donors of C57Bl/6 strain and negative for recipients of NOD/SCID strain. […] Therefore, the studies show CASIN can efficiently mobilize colony-forming hematopoietic progenitors and LT-HSCs with self-renewal and multi-lineage differentiation capacity. Thirdly, to further investigate the potential of CASIN to vacate the BM niche after mobilization, six-color staining of the BM cells was performed from C57Bl/6 mice with or without CASIN treatment followed by FACS analysis. […] Therefore, a transient decrease in BM and a concomitant increase in peripheral organs of HSCs would be beneficial to facilitating the subsequent HSC transplantation.
To determinate the hematopoietic progenitor content in the PB of mobilized C57Bl/6 mice, colony-forming unit assay was performed as described previously. Briefly, 200 ul PB was plated in triplicate into methylcellulose (MethocultM3434; StemCell Technology, Vancouver, BC, Canada). Colonies were then counted 7 d later.

Experiment [1] concerns Fancc−/− mice. Briefly: Example 10 preparative regimen for BM transplantation in Fancc−/− mice. In kind it is in vivo. The settings on record: preconditioning before BM transplantation. How it is done:
Four preparative regimens before BM transplantation on Fancc−/− mice are used to evaluate the capacity of CASIN as a preconditioning agent: (1) Control group; (2) CY group: a single dose of 40 mg/kg CY intraperitoneally; (3) CASIN group: 2.5 mg/Kg; (4) combination of CASIN and CY: one injection of CASIN is given in combination with reduced doses of CY.
Fancc−/− mice are preconditioned with each of these four regimens, and 4×10^7 BM cells from congenic strain mice are transplanted into preconditioned mice by tail vein injection. Mice that underwent transplantation are bled every four weeks to monitor the chimerism of donor-derived cells in PB. And at 3 m, the mice are sacrificed to evaluate the engraftment of donor-derived cells in BM.

The subject of experiment [2] is Fancc−/− mice. Kind of experiment: Example 10 HSC/P mobilization in Fancc−/− mice. The settings on record: mouse, in vivo. How it is done: The effects of CASIN on HSC/P mobilization in Fancc−/− mice are investigated under four groups in parallel with WT mice: (1) Control group; (2) G-CSF group: 2.5 μg G-CSF per mouse, twice a day for 4 d120; (3) CASIN group: 2.5 mg/Kg; (4) combination of CASIN and G-CSF: one injection of CASIN is given 40 h before the end of 4 d G-CSF administration.
Fancc−/− or WT mice are mobilized with regimens corresponding to the four experimental groups. Then PB are harvested by cardiac puncture. Phenotypically, the absolute number and percentage of HSC/Ps in PB after mobilization are determined as those of LSK (Lin− Sca+ c-Kit+) cells by flow cytometry. Functionally, CFU-C assay is performed in triplicate for each mouse by using PB of mice from different experimental groups, and CFU-GM, CFU-GEMM, BFU-E, and CFU-E are distinguished by morphology and using cytokine combinations. Furthermore, the long-term repopulation capacity of the mobilized HSCs is evaluated using a competitive repopulating assay and subsequent secondary transplantation as discussed above.

Turning to `c1cc(CN2CCCNCCNCCCNCC2)ccc1CN1CCCNCCNCCCNCC1` [AMD3100, reference compound], in the experiment with donor cell engraftment, the “engraftment of donor cells in pre-conditioned recipients” value is “significantly increased engraftment of donor cells”. Besides, the “mobilization of colony-forming progenitors” value in the experiment on C57Bl/6 mice is given as “can mobilize colony-forming progenitors”.

Regarding `O=P1(N(CCCl)CCCl)NCCCO1` (stereo not drawn) [CY, reference compound], the “repopulation and engraftment of donor derived cells in PB and BM of Fancc−/− recipient mice” value in the experiment with Fancc−/− mice [1] is “comparable engraftment and repopulation”.

B1: G-CSF: growth factor, currently available HSPC mobilization agent (protein, UniProt P09919 31-207, looked up)
Granulocyte …: TPLGPASSLPQSFLLKCLEQVRKIQGDGAALQEKLVSECATYKLCHPEELVLLGHSLGIPWAPLSSCPSQALQLAGCLSQLHSGLFLYQGLLQALEGISPELGPTLDTLQLDVADFATTIWQQMEELGMAPALQPTQGAMPAFASAFQRRAGGVLVASHLQSFLEVSYRVLRHLAQP
Take B1: the “engraftment of donor cells in pre-conditioned recipients” value in the experiment with donor cell engraftment was “significantly increased engraftment of donor cells”. Also, the “mobilization of HSC/Ps (LSK cells, progenitor colonies) in Fancc−/− mice” value in the experiment on Fancc−/− mice [2] is recorded as “less effective mobilizer of HSC/Ps in Fancc−/− mice than in WT mice”. Besides, the “mobilization of colony-forming progenitors” value with C57Bl/6 mice is reported as “can mobilize colony-forming progenitors”.
